From BigSolDB 2.1

Nc1cc(-c2ccncc2)c[nH]c1=O
solubility (mole fraction)
Details	278.15 K	283.15 K	288.15 K	293.15 K	298.15 K	303.15 K	308.15 K	313.15 K	318.15 K	323.15 K
in DMF	7.24e-05	8.63e-05	0.000102	0.000118	0.000135	0.000154	0.000177	0.000203	0.000229	0.00026
in ethanol	2.65e-05	3.18e-05	3.71e-05	4.41e-05	5.07e-05	5.84e-05	6.7e-05	7.54e-05	8.47e-05	9.67e-05
in ethylene glycol	1.95e-05	2.33e-05	2.74e-05	3.26e-05	3.83e-05	4.35e-05	4.95e-05	5.62e-05	6.36e-05	7.18e-05
in methanol	5.18e-05	6.11e-05	7.22e-05	8.44e-05	9.72e-05	0.000111	0.000126	0.000141	0.00016	0.00018
in water	6.85e-07	8.07e-07	9.66e-07	1.13e-06	1.33e-06	1.53e-06	1.77e-06	2.02e-06	2.3e-06	2.63e-06
